According to ChEMBL document CHEMBL5375995, “Discovery and Mechanistic Study of Novel Mycobacterium tuberculosis ClpP1P2 Inhibitors” (J Med Chem, 2023):
In brackets after ≈: the same amount, converted by molar mass. Activity calls are given as the source filed them. The rule behind the calls is not given here.

Experiments:
[1] = target: T1, ClpP1P2 (Mycobacterium tuberculosis (strain ATCC 25618 / H37Rv), UniProt P9WPC3+P9WPC5); experiment: Inhibition of N-terminal His6-SUMO-tagged Mtb ClpP1 (7 to 200 residues)/ClpP2 (13 to 214 residues) complex expressed in Escherichia coli BL21(DE3) using Z-Gly-Gly-Leu-AMC as substrate measured for 60 mins in presence of Bz-LL by fluorescence based assay
T1 sequence (P9WPC5 whole entry, the tested form may be a part): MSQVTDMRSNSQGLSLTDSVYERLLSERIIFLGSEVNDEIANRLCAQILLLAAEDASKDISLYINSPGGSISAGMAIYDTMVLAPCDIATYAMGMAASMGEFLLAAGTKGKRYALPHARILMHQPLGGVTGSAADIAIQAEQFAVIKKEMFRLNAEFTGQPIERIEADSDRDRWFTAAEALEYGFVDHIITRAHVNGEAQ
T1 sequence (P9WPC3 whole entry, the tested form may be a part): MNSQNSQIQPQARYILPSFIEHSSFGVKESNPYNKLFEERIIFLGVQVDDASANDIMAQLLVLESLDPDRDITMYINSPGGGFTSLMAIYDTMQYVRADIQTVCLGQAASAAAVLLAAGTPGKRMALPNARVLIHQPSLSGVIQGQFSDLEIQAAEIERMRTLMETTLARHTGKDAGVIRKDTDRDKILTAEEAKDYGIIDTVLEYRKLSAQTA

[2] = target: T2, ClpP1P2 (Mycobacterium tuberculosis (strain ATCC 25618 / H37Rv)) (UniProt P9WPC5+P9WPC3); experiment: Inhibition of N-terminal His6-SUMO-tagged Mtb ClpP1 (7 to 200 residues)/ClpP2 (13 to 214 residues) complex expressed in Escherichia coli BL21(DE3) using Z-Gly-Gly-Leu-AMC as substrate at 10 uM incubated for 40 mins in presence of Bz-LL by fluorescence based assay
[3] = target: T1, ClpP1P2; experiment: Inhibition of N-terminal His6-SUMO-tagged Mtb ClpP1 (7 to 200 residues)/ClpP2 (13 to 214 residues) complex expressed in Escherichia coli BL21(DE3) using FITC-casein as substrate measured for 1 hr in presence of Bz-LL/ATP by fluorescence based assay
[4] = target: ATP-dependent Clp protease ATP-binding subunit ClpC1 (Mycobacterium tuberculosis) (UniProt P9WPC9); experiment: Inhibition of N-terminal His6-tagged full-length Mtb ClpC1 ATPase activity expressed in Escherichia coli BL21(DE3) at 100 uM in presence of PK/LDH/ATP/NADH by spectrophotometry
ATP-dependent Clp protease ATP-binding subunit ClpC1 (Mycobacterium tuberculosis), sequence (P9WPC9 whole entry): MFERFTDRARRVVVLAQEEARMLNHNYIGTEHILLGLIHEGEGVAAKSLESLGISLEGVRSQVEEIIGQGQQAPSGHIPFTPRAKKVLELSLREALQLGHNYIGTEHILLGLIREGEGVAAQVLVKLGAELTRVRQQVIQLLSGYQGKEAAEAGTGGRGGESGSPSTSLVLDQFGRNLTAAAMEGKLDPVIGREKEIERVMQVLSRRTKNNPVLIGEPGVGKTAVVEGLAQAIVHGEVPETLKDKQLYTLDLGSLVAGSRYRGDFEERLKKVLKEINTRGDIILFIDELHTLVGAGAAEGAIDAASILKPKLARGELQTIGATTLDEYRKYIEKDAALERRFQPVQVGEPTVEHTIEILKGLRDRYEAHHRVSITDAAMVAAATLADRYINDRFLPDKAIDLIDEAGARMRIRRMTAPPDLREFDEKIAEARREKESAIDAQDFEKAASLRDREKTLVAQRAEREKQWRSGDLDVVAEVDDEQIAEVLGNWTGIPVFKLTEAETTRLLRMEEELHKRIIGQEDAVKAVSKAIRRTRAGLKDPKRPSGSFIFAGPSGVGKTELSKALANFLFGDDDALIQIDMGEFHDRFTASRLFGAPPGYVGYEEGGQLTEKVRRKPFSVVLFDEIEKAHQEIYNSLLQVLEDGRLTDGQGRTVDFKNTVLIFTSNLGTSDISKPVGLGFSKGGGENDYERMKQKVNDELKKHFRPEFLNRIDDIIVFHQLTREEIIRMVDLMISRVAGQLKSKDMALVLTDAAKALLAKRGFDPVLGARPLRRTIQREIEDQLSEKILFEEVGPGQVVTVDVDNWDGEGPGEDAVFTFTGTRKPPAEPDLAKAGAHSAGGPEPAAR

[5] = target: ATP-dependent Clp protease ATP-binding subunit ClpC1 (Mycobacterium tuberculosis) (UniProt P9WPC9); experiment: Inhibition of N-terminal His6-tagged full-length Mtb ClpC1 creatine kinase activity expressed in Escherichia coli BL21(DE3) using creatine phosphate as substrate at 100 uM preincubated for 10 mins followed by substrate addition measured after 10 mins in presence of ADP by Kinase-Glo assay; settings: time 20.0 min
[6] = Inhibition of full-length Escherichia coli ClpP complex expressed in Escherichia coli BL21(DE3) using Suc-LY-AMC as substrate incubated for 60 mins in presence of Bz-LL by fluorescence based assay
[7] = Inhibition of full-length Staphylococcus aureus ClpP complex expressed in Escherichia coli BL21(DE3) using Suc-LY-AMC as substrate measured for 60 mins in presence of Bz-LL by fluorescence based assay
[8] = Inhibition of full-length Pseudomonas aeruginosa ClpP1 expressed in Escherichia coli BL21(DE3) using Suc-LY-AMC as substrate measured for 60 mins in presence of Bz-LL by fluorescence based assay
[9] = Inhibition of full-length Mtb H37Rv ClpP complex expressed in Escherichia coli BL21(DE3) using FITC-casein as substrate measured for 1 hr in presence of Bz-LL/ATP by fluorescence based assay; parameters: species or system Mycobacterium tuberculosis
[10] = Inhibition of full-length human ClpP complex ([…]) expressed in Escherichia coli BL21(DE3) using Ac-WLA-AMC as substrate measured for 60 mins in presence of Bz-LL by fluorescence based assay
[11] = Inhibition of full-length human ClpP complex ([…]) expressed in Escherichia coli BL21(DE3) using FITC-casein as substrate measured for 1 hr in presence of Bz-LL/ONC212/ATP by fluorescence based assay
[12] = Selectivity index, ratio of IC50 for Mtb H37Rv ClpP complex using Z-Gly-Gly-Leu-AMC as substrate to IC50 for N-terminal His6-SUMO-tagged Mtb ClpP1 (7 to 200 residues)/ClpP2 (13 to 214 residues) complex expressed in Escherichia coli BL21(DE3)
[13] = Selectivity index, ratio of IC50 for full-length Escherichia coli ClpP complex expressed in Escherichia coli BL21(DE3) using Suc-LY-AMC as substrate to IC50 for N-terminal His6-SUMO-tagged Mtb ClpP1 (7 to 200 residues)/ClpP2 (13 to 214 residues) complex expressed in Escherichia coli BL21(DE3)
[14] = Selectivity index, ratio of IC50 for full-length Pseudomonas aeruginosa ClpP1 expressed in Escherichia coli BL21(DE3) using Suc-LY-AMC as substrate to IC50 for N-terminal His6-SUMO-tagged Mtb ClpP1 (7 to 200 residues)/ClpP2 (13 to 214 residues) complex expressed in Escherichia coli BL21(DE3)
[15] = Selectivity index, ratio of IC50 for full-length human ClpP complex ([…]) expressed in Escherichia coli BL21(DE3) using Ac-WLA-AMC as substrate to IC50 for N-terminal His6-SUMO-tagged Mtb ClpP1 (7 to 200 residues)/ClpP2 (13 to 214 residues) complex expressed in Escherichia coli BL21(DE3)
[16] = Selectivity index, ratio of IC50 for full-length Mtb H37Rv ClpP complex expressed in Escherichia coli BL21(DE3) using FITC-casein as substrate to IC50 for N-terminal His6-SUMO-tagged Mtb ClpP1 (7 to 200 residues)/ClpP2 (13 to 214 residues) complex expressed in Escherichia coli BL21(DE3)
[17] = Selectivity index, ratio of IC50 for full-length human ClpP complex ([…]) expressed in Escherichia coli BL21(DE3) using FITC-casein as substrate to IC50 for N-terminal His6-SUMO-tagged Mtb ClpP1 (7 to 200 residues)/ClpP2 (13 to 214 residues) complex expressed in Escherichia coli BL21(DE3)
[18] = system: Mycobacterium tuberculosis; experiment: Antibacterial activity against Mycobacterium tuberculosis H37Rv assessed as bacterial growth inhibition incubated for 24 hrs by broth microdilution method; format: functional
[19] = system: Mycolicibacterium smegmatis; experiment: Antibacterial activity against wild-type Mycobacterium smegmatis mc2 155 assessed as bacterial growth inhibition incubated for 2 days by Alamar blue staining based assay; format: functional; settings: mc2 155, 48 h, time 2 day
[20] = system: Escherichia coli; experiment: Antibacterial activity against Escherichia coli assessed as bacterial growth inhibition incubated for 24 hrs by broth microdilution method; format: functional
[21] = system: Staphylococcus aureus; experiment: Antibacterial activity against Staphylococcus aureus assessed as bacterial growth inhibition incubated for 24 hrs by broth microdilution method; format: functional
[22] = Inhibition of N-terminal His6-SUMO-tagged Mycobacterium smegmatis ClpP1 (3 to 200 residues)/P2 (17 to 218 residues) expressed in Escherichia coli BL21(DE3) using Z-Gly-Gly-Leu-AM as substrate measured for 60 mins in presence of Bz-LL by fluorescence based assay; parameters: species or system Mycolicibacterium smegmatis
[23] = system: Mycolicibacterium smegmatis; experiment: Antibacterial activity against Mycobacterium smegmatis mc2 155 harboring ClpX knockout assessed as bacterial growth inhibition incubated for 2 days by Alamar blue staining based assay; format: functional; settings: mc2 155, 48 h, time 2 day
[24] = system: Mycolicibacterium smegmatis; experiment: Antibacterial activity against Mycobacterium smegmatis mc2 155 harboring ClpC1 knockout assessed as bacterial growth inhibition incubated for 2 days by Alamar blue staining based assay; format: functional; settings: mc2 155, 48 h, time 2 day
[25] = target: T2, ClpP1P2 (Mycobacterium tuberculosis (strain ATCC 25618 / H37Rv)); experiment: Inhibition of wild-type Mtb ClpP1 expressed in Escherichia coli BL21(DE3)

With `COc1cc2c(Oc3ccc4[nH]c(C)cc4c3F)ncnc2cc1OCCCN1CCCC1` [CEDIRANIB] the IC50 [1] was 2.8 µM, the inhibition [2] was “Active” and the IC50 [3] was 45.1 µM. For the same compound, the inhibition [4] was “inactive”, the inhibition [5] was “inactive” and the IC50 [6] was over 500 µM. For the same compound, the IC50 [7] was over 500 µM, the IC50 [8] was over 500 µM and the IC50 [9] was 24.2 µM. It also gave an IC50 [10] of 37.5 µM, an IC50 [11] of 273 µM and a Ratio IC50 [12] of 1. For the same compound, the Ratio IC50 [13] was over 170, the Ratio IC50 [14] was over 170 and the Ratio IC50 [15] was 13.3. The Ratio IC50 [16] was 14.8, the Ratio IC50 [17] was 11.3 and the MIC [18] was 28.2 µM (≈ 12.7 µg/mL). For the same compound, the MIC [19] was 113 µM (≈ 50.9 µg/mL), the MIC [20] was over 226 µM and the MIC [21] was over 226 µM. The IC50 [22] was 6.2 µM, the MIC [23] was 56.4 µg/mL (≈ 125 µM) and the MIC [24] was 56.4 µg/mL (≈ 125 µM). For the same compound, the inhibition [25] was “inactive”.
